Reference: patent US5877187A, “Benzimidazole derivatives with antihistaminic activity” (Fabrica Espanola de Productos Quimicos y Farmaceuticos S.A. …, priority 1996, dated 1999)

How the values were obtained:
[1] = tested on: spontaneous motor activity; assay: Spontaneous motor activity of the rat; format: in vivo; conditions: 100 mg/kg p.o.
[2] = tested on: ECG / QTc interval; assay: ECG and QTc interval in rats after i.v. administration; format: in vivo, rat; conditions: 20 mg/kg i.v.
[3] = tested on: acetylcholine-induced contractions in isolated guinea pig ileum; assay: Antagonism of acetylcholine-induced contractions in isolated guinea pig ileum; format: cell-based; design: dose or concentration left out as unconfirmed
[4] = molecular target: T1, guinea pig ileum H1 -receptor histamine (Cavia porcellus, UniProt P31389); assay: Blocking of histamine-induced contractions in the isolated guinea pig ileum; format: cell-based; conditions: calculated, mixed antagonist
T1 construct: isolated guinea pig ileum; from tissue; host or cells: isolated guinea pig ileum
From the text: (§1) Compounds of formula I have useful pharmacological properties. In particular, they are potent H1 antihistamines.

[5] = tested on: histamine-induced cutaneous capillary permeability; assay: Inhibition of the increment of histamine-induced cutaneous capillary permeability in rats; format: in vivo, rat
From the text: as §1

T1 sequence (P31389 whole entry): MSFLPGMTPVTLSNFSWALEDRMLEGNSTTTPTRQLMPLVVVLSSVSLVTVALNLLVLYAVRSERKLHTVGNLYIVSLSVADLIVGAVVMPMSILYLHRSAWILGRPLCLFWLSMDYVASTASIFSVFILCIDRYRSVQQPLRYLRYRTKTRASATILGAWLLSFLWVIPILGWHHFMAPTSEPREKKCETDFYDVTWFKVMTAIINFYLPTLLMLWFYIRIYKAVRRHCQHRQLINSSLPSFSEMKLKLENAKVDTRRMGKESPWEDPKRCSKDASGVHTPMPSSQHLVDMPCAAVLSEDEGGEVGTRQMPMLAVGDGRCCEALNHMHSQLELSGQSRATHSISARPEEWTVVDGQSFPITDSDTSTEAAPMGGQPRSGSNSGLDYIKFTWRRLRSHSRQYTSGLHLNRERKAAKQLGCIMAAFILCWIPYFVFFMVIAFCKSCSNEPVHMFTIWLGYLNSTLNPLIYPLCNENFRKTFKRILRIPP

effect on spontaneous motor activity [1]: does not modify
pD2' [4]: 6.50
Kb ([4]; read-out: pA2 (converted)): 7.94 to 10.5 nM
SMILES: CCOCCn1c(C2CCN(CCc3ccc(C(C)(C)C(=O)O)cc3)CC2)nc2ccccc21 [Ib (R1 =Et), 2-[4-(2-(4-(1-(2-ethoxyethyl)benzimidazole-2-yl)piperidine-1-yl)ethyl)phenyl]-2-methylpropanoic Acid]
increase of the QTc interval [2]: nor does it increase the QTc interval
morphological ECG disturbance [2]: induces no morphological ECG disturbance
antagonism of acetylcholine-induced contractions [3]: not able to antagonize significantly
duration of significant activity in excess of 50% ([5]; 5 mg/kg p.o.): at least 6 hours
inhibition at 5 mg/kg ([5]; Rattus norvegicus, po, 5 mg/kg p.o., maintained for at least 6 hours, read-out: activity (inhibition of the increase in capillary permeability)): > 50%
ED50 ([5]; Rattus norvegicus, po, read-out: DE50, inhibition of the increase in capillary permeability): ~2 mg/kg
